Assay results: BigSolDB 2.1

COc1cc(C=O)ccc1O
solubility (mole fraction) (in ethanol, 283.15 K): 0.0673
solubility (mole fraction) (in ethanol, 288.15 K): 0.0698
solubility (mole fraction) (in ethanol, 293.15 K): 0.0734
solubility (mole fraction) (in ethanol, 298.15 K): 0.0785
solubility (mole fraction) (in ethanol, 303.15 K): 0.082
solubility (mole fraction) (in ethanol, 308.15 K): 0.0854
solubility (mole fraction) (in ethanol, 313.15 K): 0.0902
solubility (mole fraction) (in ethanol, 318.15 K): 0.0938
solubility (mole fraction) (in ethanol, 323.15 K): 0.0985
solubility (mole fraction) (in ethyl acetate, 283.15 K): 0.109
solubility (mole fraction) (in ethyl acetate, 288.15 K): 0.115
solubility (mole fraction) (in ethyl acetate, 293.15 K): 0.118
solubility (mole fraction) (in ethyl acetate, 298.15 K): 0.125
solubility (mole fraction) (in ethyl acetate, 303.15 K): 0.128
solubility (mole fraction) (in ethyl acetate, 308.15 K): 0.133
solubility (mole fraction) (in ethyl acetate, 313.15 K): 0.137
solubility (mole fraction) (in ethyl acetate, 318.15 K): 0.142
solubility (mole fraction) (in ethyl acetate, 323.15 K): 0.15

O=C(O)/C=C/c1ccc(O)cc1
solubility (mole fraction) (in ethanol, 283.15 K): 0.0358
solubility (mole fraction) (in ethanol, 288.15 K): 0.0381
solubility (mole fraction) (in ethanol, 293.15 K): 0.0414
solubility (mole fraction) (in ethanol, 298.15 K): 0.0461
solubility (mole fraction) (in ethanol, 303.15 K): 0.0514
solubility (mole fraction) (in ethanol, 308.15 K): 0.0559
solubility (mole fraction) (in ethanol, 313.15 K): 0.0621
solubility (mole fraction) (in ethanol, 318.15 K): 0.0675
solubility (mole fraction) (in ethanol, 323.15 K): 0.0735
solubility (mole fraction) (in ethyl acetate, 283.15 K): 0.00928
solubility (mole fraction) (in ethyl acetate, 288.15 K): 0.0101
solubility (mole fraction) (in ethyl acetate, 293.15 K): 0.0114
solubility (mole fraction) (in ethyl acetate, 298.15 K): 0.0129
solubility (mole fraction) (in ethyl acetate, 303.15 K): 0.0145
solubility (mole fraction) (in ethyl acetate, 308.15 K): 0.0164
solubility (mole fraction) (in ethyl acetate, 313.15 K): 0.0185
solubility (mole fraction) (in ethyl acetate, 318.15 K): 0.0208
solubility (mole fraction) (in ethyl acetate, 323.15 K): 0.0232
